Here are results for six compounds from patent publication US20250019385A1, “SPIROCYCLIC ANNULATED 2-AMINO-3-CYANO THIOPHENES AND DERIVATIVES FOR THE TREATMENT OF CANCER” (Boehringer Ingelheim International GmbH, priority 2023, published 2025).

Some results are limits rather than exact numbers.

For the first data set, the system named is MKN1 cells. Kind of data set: MKN1 CTG proliferation assay (120 h) (gastric cancer, wt amplified). In kind it is cell-based. The settings on record: Homo sapiens, MKN-1. As to the method:
(§1) MKN1 cells (JCRB0252) are dispensed into black 384-well plates, flat and clear bottom (Greiner, PNr. 781091) at a density of 200 cells per well in 60 μl RPMI-1640 ATCC-Formulation (Gibco #A10491)+10% FCS (fetal calf serum, HyClone, SH30084.03). Cells are incubated overnight at 37° C. in a humidified tissue culture incubator at 5% CO2. Compounds (10 mM stock in DMSO) are added at logarithmic dose series using the ECHO acoustic liquid handler system (Beckman Coulter), normalizing for added DMSO and including DMSO controls. All compound treatments are performed in technical duplicates. For the TO time point measurement, untreated cells are analyzed at the time of compound addition. Plates are incubated for 120 h, and cell viability is measured using CellTiter-Glo luminescent cell viability reagent (Promega product code G7570). Viability (stated as percent of control) is defined as relative luminescence units RLU of each well divided by the RLU of cells in DMSO controls. IC50 values are determined from viability measurements by non-linear regression using a four-parameter model.
(§2) IC50 values of representative compounds according to the invention measured with these assays in the indicated cell lines are presented in Table 46.
On to `C[C@H](Oc1nc(-c2onc3c2CCC[C@@]32CCCc3sc(N)c(C#N)c32)nc2c1CN(C1COC1)C[C@]21CCOC1)[C@@H]1CCCN1C` [I-56], for which the IC50 is 15 nM.

The compound `CO[C@H]1CCN(C)[C@@H]1[C@H](C)Oc1nc(-c2onc3c2CCC[C@@]32CCCc3sc(N)c(C#N)c32)nc2c1CN(C1COC1)C[C@]21CCOC1` [I-57] showed a half-maximal inhibitory concentration (IC50) of 1 nM.

`C[C@H](Oc1nc(-c2onc3c2CCC[C@@]32CCCc3sc(N)c(C#N)c32)nc2c1n(C)c(=O)n2[C@@H]1CCCOC1)[C@@H]1CCCN1C` [I-12] yielded an IC50 of 10 nM.

As for `C[C@H](Oc1nc(-c2onc3c2CCC[C@@]32CCCc3sc(N)c(C#N)c32)nc2c1COC[C@]21CCOC1)[C@@H]1CCCN1C` [I-54], half-maximal inhibition (IC50) was put at 7 nM.

Compound `CO[C@H]1CCN(C)[C@@H]1[C@H](C)Oc1nc(-c2noc3c2CCC[C@@]32CCCc3sc(N)c(C#N)c32)nc2c1n(C)c(=O)n2[C@@H]1CCCOC1` [II-3] had an IC50 of 14 nM.

Turning to `C[C@H](Oc1nc(-c2onc3c2CCC[C@@]32CCCc3sc(N)c(C#N)c32)nc2c1n(C)c(=O)n2[C@@H]1CCOC1)[C@@H]1C[C@@H]2C[C@@H]2N1C` [I-28], the IC50 is 134 nM.

Another data set relates to Ba/F3 cells KRAS G12C. Kind of data set: Ba/F3 proliferation assay (KRAS G12C). In kind it is cell-based. Conditions: Mus musculus, BaF3, 72 h, AlamarBlue viability. A digest of the protocol: (§3)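 Ba/F3 cells retrovirally transduced with KRAS G12 mutant, puromycin-selected, grown IL-3-independent; seeded in RPMI-1640 + 10% FCS without IL-3. Logarithmic compound dose series in duplicate, 72 h at 37° C., AlamarBlue fluorescence as % of DMSO control; IC50 from four-parameter non-linear regression.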
Consider `C[C@H](Oc1nc(-c2onc3c2CCC[C@@]32CCCc3sc(N)c(C#N)c32)nc2c1CN(C1COC1)C[C@]21CCOC1)[C@@H]1CCCN1C` [I-56], for which the IC50 was 4 nM.

In turn, `CO[C@H]1CCN(C)[C@@H]1[C@H](C)Oc1nc(-c2onc3c2CCC[C@@]32CCCc3sc(N)c(C#N)c32)nc2c1CN(C1COC1)C[C@]21CCOC1` [I-57] displayed an IC50 of 3 nM.

For the compound `C[C@H](Oc1nc(-c2onc3c2CCC[C@@]32CCCc3sc(N)c(C#N)c32)nc2c1n(C)c(=O)n2[C@@H]1CCCOC1)[C@@H]1CCCN1C` [I-12], the IC50 is 4 nM.

`C[C@H](Oc1nc(-c2onc3c2CCC[C@@]32CCCc3sc(N)c(C#N)c32)nc2c1COC[C@]21CCOC1)[C@@H]1CCCN1C` [I-54] yielded an IC50 of 2 nM.

In turn, `CO[C@H]1CCN(C)[C@@H]1[C@H](C)Oc1nc(-c2noc3c2CCC[C@@]32CCCc3sc(N)c(C#N)c32)nc2c1n(C)c(=O)n2[C@@H]1CCCOC1` [II-3] registered an IC50 of 3 nM.

`C[C@H](Oc1nc(-c2onc3c2CCC[C@@]32CCCc3sc(N)c(C#N)c32)nc2c1n(C)c(=O)n2[C@@H]1CCOC1)[C@@H]1C[C@@H]2C[C@@H]2N1C` [I-28] had an IC50 of 26 nM.

The test system of another data set is AsPC-1 cells. Kind of data set: AsPC-1 CTG proliferation assay (120 h) (pancreatic cancer, G12D). Format: cell-based. Conditions: Homo sapiens, ASPC1. As to the method:
as §1, with “AsPC-1” for “MKN1”, “(ATCC CRL-1682)” for “(JCRB0252)”, “500” for “200”, “RPMI” for “RPMI-1640”, “(PAN P04-18047)+10%” for “(Gibco #A10491)+10%”
as §2
As for `C[C@H](Oc1nc(-c2onc3c2CCC[C@@]32CCCc3sc(N)c(C#N)c32)nc2c1CN(C1COC1)C[C@]21CCOC1)[C@@H]1CCCN1C` [I-56], the IC50 was 92 nM. That is a double-digit nanomolar value.

As to `CO[C@H]1CCN(C)[C@@H]1[C@H](C)Oc1nc(-c2onc3c2CCC[C@@]32CCCc3sc(N)c(C#N)c32)nc2c1CN(C1COC1)C[C@]21CCOC1` [I-57], the IC50 was found to be 129 nM. The IC50 values of the last two compounds are within 1.5-fold of each other.

For the compound `C[C@H](Oc1nc(-c2onc3c2CCC[C@@]32CCCc3sc(N)c(C#N)c32)nc2c1n(C)c(=O)n2[C@@H]1CCCOC1)[C@@H]1CCCN1C` [I-12], the IC50 was 326 nM.

The compound `C[C@H](Oc1nc(-c2onc3c2CCC[C@@]32CCCc3sc(N)c(C#N)c32)nc2c1COC[C@]21CCOC1)[C@@H]1CCCN1C` [I-54] returned an IC50 of 76 nM.

Compound `CO[C@H]1CCN(C)[C@@H]1[C@H](C)Oc1nc(-c2noc3c2CCC[C@@]32CCCc3sc(N)c(C#N)c32)nc2c1n(C)c(=O)n2[C@@H]1CCCOC1` [II-3] had an IC50 of 236 nM.

With `C[C@H](Oc1nc(-c2onc3c2CCC[C@@]32CCCc3sc(N)c(C#N)c32)nc2c1n(C)c(=O)n2[C@@H]1CCOC1)[C@@H]1C[C@@H]2C[C@@H]2N1C` [I-28], the IC50 was 1720 nM.

The test system of a further data set is Ba/F3 cells KRAS G12V. Kind of data set: Ba/F3 proliferation assay (KRAS G12V). In kind it is cell-based. Conditions: Mus musculus, BaF3, 72 h, AlamarBlue viability. A digest of the protocol: as §3
In the case of `C[C@H](Oc1nc(-c2onc3c2CCC[C@@]32CCCc3sc(N)c(C#N)c32)nc2c1CN(C1COC1)C[C@]21CCOC1)[C@@H]1CCCN1C` [I-56], the IC50 stood at 2 nM.

Consider `CO[C@H]1CCN(C)[C@@H]1[C@H](C)Oc1nc(-c2onc3c2CCC[C@@]32CCCc3sc(N)c(C#N)c32)nc2c1CN(C1COC1)C[C@]21CCOC1` [I-57], for which the IC50 was determined as 2 nM.

`C[C@H](Oc1nc(-c2onc3c2CCC[C@@]32CCCc3sc(N)c(C#N)c32)nc2c1n(C)c(=O)n2[C@@H]1CCCOC1)[C@@H]1CCCN1C` [I-12]: 2 nM corresponded to half-maximal inhibition (IC50).

For `C[C@H](Oc1nc(-c2onc3c2CCC[C@@]32CCCc3sc(N)c(C#N)c32)nc2c1COC[C@]21CCOC1)[C@@H]1CCCN1C` [I-54], the IC50 amounted to 1 nM.

Compound `CO[C@H]1CCN(C)[C@@H]1[C@H](C)Oc1nc(-c2noc3c2CCC[C@@]32CCCc3sc(N)c(C#N)c32)nc2c1n(C)c(=O)n2[C@@H]1CCCOC1` [II-3] registered a 50% inhibitory concentration (IC50) of 2 nM.

`C[C@H](Oc1nc(-c2onc3c2CCC[C@@]32CCCc3sc(N)c(C#N)c32)nc2c1n(C)c(=O)n2[C@@H]1CCOC1)[C@@H]1C[C@@H]2C[C@@H]2N1C` [I-28] came in with an IC50 of 12 nM.

System in another data set: not listed separately
Kind of data set: Metabolic (microsomal) stability assay, human liver microsomes (HLM). In kind it is in vitro ADME. The settings on record: 1 μM test compound, predicted clearance as percent of liver blood flow.
Turning to `C[C@H](Oc1nc(-c2onc3c2CCC[C@@]32CCCc3sc(N)c(C#N)c32)nc2c1CN(C1COC1)C[C@]21CCOC1)[C@@H]1CCCN1C` [I-56], the “HLM QH” value was less than 24%.

Turning to `CO[C@H]1CCN(C)[C@@H]1[C@H](C)Oc1nc(-c2onc3c2CCC[C@@]32CCCc3sc(N)c(C#N)c32)nc2c1CN(C1COC1)C[C@]21CCOC1` [I-57], the “HLM QH” value is 61%.

For the compound `C[C@H](Oc1nc(-c2onc3c2CCC[C@@]32CCCc3sc(N)c(C#N)c32)nc2c1n(C)c(=O)n2[C@@H]1CCCOC1)[C@@H]1CCCN1C` [I-12], the “HLM QH” value is less than 24%.

Take `C[C@H](Oc1nc(-c2onc3c2CCC[C@@]32CCCc3sc(N)c(C#N)c32)nc2c1COC[C@]21CCOC1)[C@@H]1CCCN1C` [I-54]: the “HLM QH” value is 31%.

For the compound `CO[C@H]1CCN(C)[C@@H]1[C@H](C)Oc1nc(-c2noc3c2CCC[C@@]32CCCc3sc(N)c(C#N)c32)nc2c1n(C)c(=O)n2[C@@H]1CCCOC1` [II-3], the “HLM QH” value is recorded as 80%.

Turning to `C[C@H](Oc1nc(-c2onc3c2CCC[C@@]32CCCc3sc(N)c(C#N)c32)nc2c1n(C)c(=O)n2[C@@H]1CCOC1)[C@@H]1C[C@@H]2C[C@@H]2N1C` [I-28], the “HLM QH” value is 52%.
